Data as given in US20130310379A1, “MODULATORS OF METHYL MODIFYING ENZYMES, COMPOSITIONS AND USES THEREOF” (CONSTELLATION PHARMACEUTICALS, priority 2010, published 2013).

target: EZH2 (Homo sapiens, UniProt Q15910); experiment: EZH2 assay: rPRC2 with biotinylated oligonucleosome substrates and 3H SAM, FlashPlate scintillation counting, IC50; format: biochemical; settings: rPRC2, biotinylated oligonucleosome substrates, 3H SAM; read-out: EZH2 IC50
Protocol: Assays were carried out by mixing rPRC2 together with biotinylated oligonucleosome substrates in the presence of the radio-labeled enzyme co-factor, S-adenosyl-L-methionine (^3H SAM) (Perkin Elmer) and monitoring the enzymatically mediated transfer of tritiated methyl groups from ^3H SAM to histone lysine residues. The amount of resulting tritated methylhistone product was measured by first capturing the biotinylated oligonuclesomes in streptavidin (SAV) coated FlashPlates (Perkin Elmer), followed by a wash step to remove un-reacted ^3H SAM, and then counting on a TopCount NXT 384 well plate scintillation counter (Perkin Elmer). The final assay conditions for EZH2 were as follows: 50 mM Tris Buffer pH 8.5, 1 mM DTT, 69 uM Brij-35 detergent, 5.0 mM MgCl2, 0.1 mg/mL BSA, 0.2 uM ^3H SAM, 0.2 uM biotinylated oligonucleosomes, 3.6 uM H3K27me3 peptide and 2 nM EZH2.
Compound IC50 measurements were obtained as follows: Compounds were first dissolved in 100% DMSO as 10 mM stock solutions. […] A 12.5 uL volume of the HMT enzyme, H3K27me3 peptide and oligonucleosome substrate in assay buffer was added to each well of the assay plate using a Multidrop Combi (ThermoFisher). Compounds were pre-incubated with the enzyme for 20 min, followed by initiation of the methyltransferase reaction by addition of 12.5 uL of 3H SAM in assay buffer (final volume=25 uL). The final concentrations of compounds ranged from a top default concentration of 80 uM down to 0.16 uM in ten 2-fold dilution steps. Reactions were carried out for 60 minutes and quenched with 20 uL per well of 1.96 mM SAH, 50 mM Tris PH 8.5, 200 mM EDTA. Stopped reactions were transferred to SAV coated Flashplates (Perkin Elmer), incubated for 120 min, washed with a plate washer, and then read on the TopCount NXT (1.0 min/well) to measure the amount of methylhistone product formed during the reaction. The amount of methylhistone product was compared with the amount of product formed in the 0% and 100% inhibition control wells allowing the calculation of % Inhibition in the presence of the individual compounds at various concentrations. IC50's were computed using a 4 parameter fit non-linear curve fitting software package (XLFIT, part of the database package, ActivityBase (IDBS)) where the four parameters were IC50, Hill slope, pre-transitional baseline (0% INH), and post-transitional baseline (100% INH); with the latter two parameters being fixed to zero and 100%, respectively, by default.

Chain of EZH2 (Q15910 whole entry): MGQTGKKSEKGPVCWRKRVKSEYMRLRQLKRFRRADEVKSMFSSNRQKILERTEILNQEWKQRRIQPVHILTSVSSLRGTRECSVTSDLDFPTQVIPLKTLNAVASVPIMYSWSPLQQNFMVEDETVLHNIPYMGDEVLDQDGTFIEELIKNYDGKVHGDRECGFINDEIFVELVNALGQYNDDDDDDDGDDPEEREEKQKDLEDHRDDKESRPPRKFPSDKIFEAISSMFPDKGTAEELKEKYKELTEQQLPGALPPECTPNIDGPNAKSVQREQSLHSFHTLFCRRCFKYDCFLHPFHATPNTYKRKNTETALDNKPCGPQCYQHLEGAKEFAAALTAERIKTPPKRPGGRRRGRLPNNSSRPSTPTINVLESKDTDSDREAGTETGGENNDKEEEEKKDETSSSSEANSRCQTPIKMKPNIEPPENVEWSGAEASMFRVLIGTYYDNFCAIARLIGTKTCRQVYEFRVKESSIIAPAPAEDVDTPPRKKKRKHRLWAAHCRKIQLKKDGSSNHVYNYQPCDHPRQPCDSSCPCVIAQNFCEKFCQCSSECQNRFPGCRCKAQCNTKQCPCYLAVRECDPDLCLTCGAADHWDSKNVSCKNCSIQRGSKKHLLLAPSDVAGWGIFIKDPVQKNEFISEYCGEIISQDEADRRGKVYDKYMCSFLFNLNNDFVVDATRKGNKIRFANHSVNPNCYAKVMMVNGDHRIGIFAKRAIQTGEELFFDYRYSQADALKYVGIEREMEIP
Chain of EZH2 (O75530 whole entry partner): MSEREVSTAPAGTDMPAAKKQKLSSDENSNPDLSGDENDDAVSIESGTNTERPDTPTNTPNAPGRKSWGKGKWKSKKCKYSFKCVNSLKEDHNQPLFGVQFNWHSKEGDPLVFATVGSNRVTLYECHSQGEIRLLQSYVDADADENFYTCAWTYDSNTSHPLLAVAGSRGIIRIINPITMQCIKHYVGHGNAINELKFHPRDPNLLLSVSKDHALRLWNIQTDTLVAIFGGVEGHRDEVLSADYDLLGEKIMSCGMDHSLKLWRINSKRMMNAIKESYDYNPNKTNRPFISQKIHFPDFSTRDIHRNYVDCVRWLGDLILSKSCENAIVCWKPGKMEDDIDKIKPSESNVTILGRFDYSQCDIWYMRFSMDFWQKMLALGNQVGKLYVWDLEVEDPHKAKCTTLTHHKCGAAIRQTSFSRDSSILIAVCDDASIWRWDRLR
Chain of EZH2 (Q15022 whole entry partner): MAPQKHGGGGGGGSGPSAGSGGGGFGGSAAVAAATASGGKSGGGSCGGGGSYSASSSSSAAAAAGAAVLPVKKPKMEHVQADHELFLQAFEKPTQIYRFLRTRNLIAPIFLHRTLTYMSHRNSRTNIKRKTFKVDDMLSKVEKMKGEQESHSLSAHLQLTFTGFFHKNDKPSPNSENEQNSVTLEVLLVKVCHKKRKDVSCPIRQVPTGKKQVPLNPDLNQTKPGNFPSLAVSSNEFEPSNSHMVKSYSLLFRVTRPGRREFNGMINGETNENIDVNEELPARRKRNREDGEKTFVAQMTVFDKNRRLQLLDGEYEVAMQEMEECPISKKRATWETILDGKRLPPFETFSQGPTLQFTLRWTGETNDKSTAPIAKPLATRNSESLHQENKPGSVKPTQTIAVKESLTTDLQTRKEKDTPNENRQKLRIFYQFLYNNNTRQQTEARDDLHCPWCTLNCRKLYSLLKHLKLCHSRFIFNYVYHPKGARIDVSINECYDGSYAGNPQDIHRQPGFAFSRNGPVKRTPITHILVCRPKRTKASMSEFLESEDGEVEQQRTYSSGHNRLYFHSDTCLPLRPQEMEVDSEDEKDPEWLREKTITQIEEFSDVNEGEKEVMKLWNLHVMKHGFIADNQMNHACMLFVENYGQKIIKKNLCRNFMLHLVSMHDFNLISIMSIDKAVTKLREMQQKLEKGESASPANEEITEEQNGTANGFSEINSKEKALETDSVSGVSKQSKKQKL

Row | IC50 [µM] | Structure (SMILES)
1 | > 80 | COc1ccncc1-c1ccccc1Oc1ccc(C(=O)NC2CC(C)(C)NC(C)(C)C2)cc1Cl [Compound I-280]
2 | > 80 | CCOC(=O)N1CCC(NC(=O)c2ccc(Oc3ccccc3C#N)c(Cl)c2)CC1 [Compound I-281]
3 | 20 to 80 | CC1(C)CC(CC(=O)O)(NC(=O)c2ccc(Oc3cccc(-c4ccnnc4)c3C#N)c(Cl)c2)CC(C)(C)N1 [Compound I-482]
4 | > 80 | CC1(C)CC(NC(=O)c2ccc(Oc3ccccc3C#N)c(Cl)c2)CC(C)(C)N1CC(N)=O [Compound I-452]
5 | < 5 | CCc1cccc(Oc2ccc(C(=O)NC3CC(C)(C)NC(C)(C)C3)cc2Cl)c1C#N [Compound I-310]
6 | > 80 | CC1(C)CC(NC(=O)c2ccc(COc3cccc(N4CCCNCC4)c3)cc2)CC(C)(C)N1 [Compound I-166]
7 | < 5 | CC(Cc1cccc(Oc2ccc(C(=O)NC3CC(C)(C)NC(C)(C)C3)cc2Cl)c1C#N)C(N)=O (stereo not drawn) [Compound I-559]
8 | < 5 | CC1(C)CC(NC(=O)c2ccc(Oc3ccccc3C#N)c(Cl)c2)CC(C)(C)N1 [Compound I-2]
9 | > 80 | CC1(C)CC(NC(=O)c2ccc(OC3CCNCC3)c(Cl)c2)CC(C)(C)N1 [Compound I-382]
10 | 20 to 80 | CC1(C)CC(NC(=O)c2ccc(Oc3cccc4c[nH]c(=O)cc34)cc2)CC(C)(C)N1 [Compound I-370]
11 | > 80 | N#Cc1ccccc1Oc1ccc(C(=O)NC2CCNC(=O)C2)cc1Cl (stereo not drawn) [Compound I-403]
12 | > 80 | COC(=O)C1CC(NC(=O)c2ccc(Oc3ccccc3C#N)c(Cl)c2)CCN1 (stereo not drawn) [Compound I-389]
13 | > 80 | N#Cc1c(Oc2ccc(C(=O)NC3CCNCC3)cc2Cl)cccc1-c1cn[nH]c1 [Compound I-373]
14 | 20 to 80 | CC1(C)CC(NC(=O)c2ccc(Oc3cccc4cccnc34)cc2)CC(C)(C)N1 [Compound I-331]
15 | > 80 | Cc1ccc(Oc2ccc(C(=O)NC3CC(C)(C)NC(C)(C)C3)cc2)cn1 [Compound I-89]
16 | 5 to 20 | CC1(C)CC(NC(=O)c2ccc(N3CCc4cccc(O)c4C3=O)c(Cl)c2)CC(C)(C)N1 [Compound I-498]
17 | 5 to 20 | CC1(C)CC(NC(=O)c2ccc(Oc3ccccc3-c3ccccn3)c(Cl)c2)CC(C)(C)N1 [Compound I-225]
18 | 20 to 80 | CC1(C)CC(NC(=O)c2ccc(Oc3ccccc3C#N)c(Cl)c2)C(F)C(C)(C)N1 (stereo not drawn) [Compound I-434]
19 | 20 to 80 | CC1(C)CC(NC(=O)c2ccc(Oc3ccccc3)c(OCc3ccccc3)c2)CC(C)(C)N1 [Compound I-269]
20 | < 5 | Cc1cncc(-c2ccccc2Oc2ccc(C(=O)NC3CC(C)(C)NC(C)(C)C3)cc2Cl)c1 [Compound I-296]
21 | 5 to 20 | CC1CC(NC(=O)c2ccc(Oc3ccccc3C#N)c(Cl)c2)CC(C)(C)N1 (stereo not drawn) [Compound I-461]

Row | IC50 [µM] | Structure (SMILES)
22 | 20 to 80 | CC1(C)CC(NC(=O)c2ccc(Oc3cccnc3)cc2)CC(C)(C)N1 [Compound I-21]
23 | > 80 | CC1(C)CC(NC(=O)c2cccc(-c3ccccc3)c2)CC(C)(C)N1 [Compound I-105]
24 | > 80 | CN(C)Cc1ccccc1Oc1ccc(C(=O)NC2CC(C)(C)NC(C)(C)C2)cc1 [Compound I-275]
25 | > 80 | CC1(C)CC(NC(=O)c2ccc3c(c2)Cc2ccccc2O3)CC(C)(C)N1 [Compound I-412]
26 | 5 to 20 | CC1(C)CC(NC(=O)c2ccc(COc3cccc(-c4cn[nH]c4)c3)cc2)CC(C)(C)N1 [Compound I-12]
27 | < 5 | CC1(C)CC(NC(=O)c2ccc(Oc3cccc(-c4ccnnc4)c3C#N)c(Cl)c2)CC(c2ccccc2)N1 (stereo not drawn) [Compound I-477]
28 | < 5 | CC1(C)CC(NC(=O)c2ccc(Oc3cccc(-c4cnn(CC(N)=O)c4)c3C#N)c(Cl)c2)CC(C)(C)N1 [Compound I-386]
29 | 20 to 80 | CC1(C)CC(NC(=O)c2ccc(Sc3ccccc3)cc2)CC(C)(C)N1 [Compound I-50]
30 | > 80 | CC1(C)CC(NC(=O)c2ccc(Oc3cccc4c(=O)[nH]ccc34)cc2)CC(C)(C)N1 [Compound I-317]
31 | > 80 | CC1(C)CC(NC(=O)c2ccc(O[C@H]3CCNC3=O)c(Cl)c2)CC(C)(C)N1 [Compound I-457]
32 | < 5 | CC1(C)CC(NC(=O)c2ccc(COc3cccc(-c4cnc(N)nc4)c3)cc2)CC(C)(C)N1 [Compound I-3]
33 | < 5 | CC1(C)CC(NC(=O)c2ccc(Oc3ccccc3-c3ncco3)c(Cl)c2)CC(C)(C)N1 [Compound I-253]
34 | < 5 | CC(=O)N1CCC(c2cccc(Oc3ccc(C(=O)NC4CC(C)(C)NC(C)(C)C4)cc3Cl)c2C#N)CC1 [Compound I-537]
35 | > 80 | CC1(C)CC(NC(=O)c2ccc(COc3ccncc3)cc2)CC(C)(C)N1 [Compound I-112]
36 | < 5 | Cc1cc(C(=O)NC2CC(C)(C)NC(C)(C)C2)ccc1Oc1cccc(C(C)C)c1C#N [Compound I-267]
37 | < 5 | CC1CC(NC(=O)c2ccc(Oc3cccc(-c4ccnnc4)c3C#N)c(Cl)c2)CC(C)(C)N1 (stereo not drawn) [Compound I-478]
38 | > 80 | CC(Oc1ccccc1)c1ccc(C(=O)NC2CC(C)(C)NC(C)(C)C2)cc1 (stereo not drawn) [Compound I-118, 4-(1-phenoxyethyl)-N-(2,2,6,6-tetramethylpiperidin-4-yl)benzamide]
39 | < 5 | CC1(C)CC(NC(=O)c2ccc(Oc3ccccc3C#N)c(Cl)c2)CC(C)(C)N1CCCO [Compound I-489, 3-chloro-4-(2-cyanophenoxy)-N-(1-(3-hydroxypropyl)-2,2,6,6-tetramethylpiperidin-4-yl)benzamide]
40 | > 80 | CC1CCCCC1Oc1ccc(C(=O)NC2CC(C)(C)NC(C)(C)C2)cc1 (stereo not drawn) [Compound I-298]
41 | 5 to 20 | CC1(C)CC(NC(=O)c2ccc(Oc3cccc4cnc(N)cc34)cc2)CC(C)(C)N1 [Compound I-350]
42 | 5 to 20 | CC1(C)CC(NC(=O)c2ccc(COc3cccc4ncccc34)cc2)CC(C)(C)N1 [Compound I-190]

Row | IC50 [µM] | Structure (SMILES)
43 | 20 to 80 | COCc1ccccc1Oc1ccc(C(=O)NC2CC(C)(C)NC(C)(C)C2)cc1 [Compound I-248]
44 | 20 to 80 | CN(C)C(=O)c1ccccc1Oc1ccc(C(=O)NC2CC(C)(C)NC(C)(C)C2)cc1Cl [Compound I-246]
45 | < 5 | CC1(C)CC(NC(=O)c2ccc(Oc3cccc(NCC(N)=O)c3C#N)c(Cl)c2)CC(C)(C)N1 [Compound I-502]
46 | < 5 | CNC(=O)Cc1cccc(Oc2ccc(C(=O)NC3CC(C)(C)NC(C)(C)C3)cc2Cl)c1C#N [Compound I-458]
47 | 20 to 80 | CC1(C)CC(NC(=O)c2ccc(Oc3ccccc3CN)cc2)CC(C)(C)N1 [Compound I-273]
48 | < 5 | CC1(C)CC(NC(=O)c2ccc(Oc3cccnc3C#N)c(Br)c2)CC(C)(C)N1 [Compound I-219]
49 | 5 to 20 | CC1(C)CC(NC(=O)c2ccc(Oc3cccc(CN4CCCC4)c3)cc2)CC(C)(C)N1 [Compound I-235]
50 | 5 to 20 | CC1(C)CC(NC(=O)c2ccc(Oc3ccccc3C#N)cn2)CC(C)(C)N1 [Compound I-205]
51 | > 80 | CC1(C)CC(NC(=O)c2ccc(OCc3cccc(F)c3)cc2)CC(C)(C)N1 [Compound I-88]
52 | 5 to 20 | CC1(C)CC(NC(=O)c2ccc(Oc3ccccc3C#N)cc2F)CC(C)(C)N1 [Compound I-245]
53 | 5 to 20 | CNC(C)c1cccc(Oc2ccc(C(=O)NC3CC(C)(C)NC(C)(C)C3)cc2Cl)c1 (stereo not drawn) [Compound I-443]
54 | 20 to 80 | CC1(C)CC(NC(=O)c2ccc(Oc3c(F)cccc3C#N)cc2)CC(C)(C)N1 [Compound I-159]
55 | < 5 | Cc1cc(C(=O)NC2CC(C)(C)NC(C)(C)C2)ccc1Oc1cccc(-c2ccnnc2)c1C#N [Compound I-508]
56 | 20 to 80 | CC1(C)CC(NC(=O)c2ccc(COc3cccc(-c4ccc(O)cc4)c3)cc2)CC(C)(C)N1 [Compound I-38]
57 | < 5 | CC1(C)CC(NC(=O)c2ccc(COc3cccc(-c4ccc(N)nc4)c3)cc2)CC(C)(C)N1 [Compound I-1]
58 | 20 to 80 | Cc1ccc(OCc2ccc(C(=O)NC3CC(C)(C)NC(C)(C)C3)cc2)cc1 [Compound I-22]
59 | 20 to 80 | CC(C#N)c1cccc(Oc2ccc(C(=O)NC3CC(C)(C)NC(C)(C)C3)cc2Cl)c1 (stereo not drawn) [Compound I-479]
60 | < 5 | CC1(C)CC(NC(=O)c2ccc(Oc3cccc(-c4ccc(C(N)=O)nc4)c3C#N)c(Cl)c2)CC(C)(C)N1 [Compound I-527]
61 | 20 to 80 | Cc1ncccc1-c1cccc(OCc2ccc(C(=O)NC3CC(C)(C)NC(C)(C)C3)cc2)c1 [Compound I-58]
62 | 20 to 80 | COc1cncc(-c2cccc(OCc3ccc(C(=O)NC4CC(C)(C)NC(C)(C)C4)cc3)c2)c1 [Compound I-37]
63 | 5 to 20 | CC1(C)CC(NC(=O)c2ccc(Oc3cccc(CN4CCCCC4)c3C#N)cc2)CC(C)(C)N1 [Compound I-283]
